Assay results taken from US6372800B1, “Benzene compound and pharmaceutical use thereof” (Mitsubishi Pharma Corporation, priority 1994, dated 2002).
Where “and” joins values, the source holds several entries; their conditions need not be identical. Equal values may be shown once.

Experiments:
[1] = system: host versus graft reaction in rats; assay: Inhibitory effect on host versus graft (HvG) reaction in rats (popliteal lymph node weight); type: in vivo, rat; conditions: administered daily for 4 days after the injection with cells intravenously or orally, difference of right and left popliteal lymph node weights
Protocol: (§1) The spleen is removed from male WKAH rats at ages of 4 to 5 weeks old and is used to obtain a single cell suspension of spleen cells using RPMI 1640 medium (containing kanamycin sulfate at […], penicillin G potassium at 100 unit/ml, N-2-hydroxyethylpiperazine-N-2-ethane sulfate at 10 mM, 0.1% sodium bicarbonate, and L-glutamine at 2 mM). After the treatment of lysing of red blood cells, the cells are washed at three times and are adjusted at 5×10^7 cells/ml with physiological saline. By injection into right hind foot pad of 100 ul of spleen cell suspension, the host versus graft reaction (HvG reaction) are induced. After 4 days of the injection with cells, both of right and left popliteal lymph nodes are removed and the weight of them are measured. The test compounds are examined by difference of the lymph node weights between right and left as a indicator of HvG reaction. In addition, after 4 days of the injection with cells, blood is obtained from tail vein of the rats and the number of peripheral white blood cells are measured using automatic hemocytometer for animal (MEK-5158, Nihonkouden Co. Ltd.). Test compounds are administered daily for 4 days after the injection with cells intravenously or orally.
(§2) The value in the table represents minimum effective dose (mg/kg).

[2] = system: peripheral white blood cells; assay: Reduction of peripheral white blood cells in rats of the HvG reaction test; type: in vivo, rat; conditions: for Reduction of peripheral white blood cells, minimum effective dose: administered daily for 4 days intravenously or orally, blood from tail vein 4 days after the injection with cells; for reduction of peripheral white blood cell number relative to immunosuppressive dose (assessment in words): conclusion drawn from Table 1 (HvG test)
Protocol: as §1, §2

CCCCCCCOc1ccc(CCC(C)(CO)NC(=O)c2cc([N+](=O)[O-])cc([N+](=O)[O-])c2)cc1 (racemic)
melting point: 150 to 151 °C

CCCCCCCOc1ccc(CCC(CO)(CCC)NC(=O)c2cc([N+](=O)[O-])cc([N+](=O)[O-])c2)cc1 (racemic) [Working Example 29]
melting point: 114 to 115 °C and 115 to 116 °C

CCCCCCCOc1ccc(CCC(C)(N)CO)cc1.Cl (stereo not drawn) [Compound of experiment 1, 2-Amino-4-(4-heptyloxyphenyl)-2-methylbutanol Hydrochloride]
Inhibitory effect on HvG reaction, minimum effective dose [1]: 0.03 mg/kg | Reduction of peripheral white blood cells, minimum effective dose [2]: 0.03 mg/kg | reduction of peripheral white blood cell number relative to immunosuppressive dose (assessment in words) [2]: weakness of reduction of peripheral white blood cell number

CCCCCCCCCc1ccc(CCCC(N)(CO)CCO)cc1 (stereo not drawn) [Compound of experiment 3, 2-Amino-2-[3-(4-nonylphenyl)propyl]butane-1,4-diol]
Inhibitory effect on HvG reaction, minimum effective dose [1]: 0.03 mg/kg | Reduction of peripheral white blood cells, minimum effective dose [2]: 0.03 mg/kg | reduction of peripheral white blood cell number relative to immunosuppressive dose (assessment in words) [2]: weakness of reduction of peripheral white blood cell number | melting point: 71 to 73 °C

CCCCCCCOc1ccc(CCC(N)(CC)CO)cc1.Cl (stereo not drawn) [Compound of experiment 27, 2-Amino-2-ethyl-4-(4-heptyloxyphenyl)butanol Hydrochloride]
Inhibitory effect on HvG reaction, minimum effective dose [1]: 0.03 mg/kg | Reduction of peripheral white blood cells, minimum effective dose [2]: 0.03 mg/kg | reduction of peripheral white blood cell number relative to immunosuppressive dose (assessment in words) [2]: weakness of reduction of peripheral white blood cell number | melting point: 108 to 110 °C

CCCCCCCOc1ccc(CC[C@@](N)(CO)CCC)cc1.Cl [Compound of experiment 31, (R)-2-amino-2-[2-(4-heptyloxyphenyl)ethyl]pentanol Hydrochloride]
Inhibitory effect on HvG reaction, minimum effective dose [1]: <0.3 mg/kg | Reduction of peripheral white blood cells, minimum effective dose [2]: 3 mg/kg | reduction of peripheral white blood cell number relative to immunosuppressive dose (assessment in words) [2]: weakness of reduction of peripheral white blood cell number

CCCCCCCOc1ccc(CCC(N)(CO)C(C)C)cc1.CCCCCCCOc1ccc(CCC(N)(CO)C(C)C)cc1.Cl.Cl.O (stereo not drawn) [Compound of experiment 60, 2-Amino-2-isopropyl-4-(4-heptyloxyphenyl)butanol Hydrochloride 1/2 Hydrate]
Inhibitory effect on HvG reaction, minimum effective dose [1]: 1 mg/kg | Reduction of peripheral white blood cells, minimum effective dose [2]: 3 mg/kg | reduction of peripheral white blood cell number relative to immunosuppressive dose (assessment in words) [2]: weakness of reduction of peripheral white blood cell number

CCCCCCCOc1ccc(CCC(C)(N)CO)cc1OC (stereo not drawn) [Compound of experiment 66, 2-Amino-4-(4-heptyloxy-3-methoxyphenyl)-2-methylbutanol 1/10 Hydrate]
Inhibitory effect on HvG reaction, minimum effective dose [1]: 3 mg/kg | Reduction of peripheral white blood cells, minimum effective dose [2]: 3 mg/kg | reduction of peripheral white blood cell number relative to immunosuppressive dose (assessment in words) [2]: weakness of reduction of peripheral white blood cell number

CCCCCCCCc1ccc(CCC(N)(CO)CO)cc1.Cl [FTY720, 2-amino-2-[2-(4-octylphenyl)ethyl]propane-1,3-diol hydrochloride, reference compound]
Inhibitory effect on HvG reaction, minimum effective dose [1]: 0.1 mg/kg | Reduction of peripheral white blood cells, minimum effective dose [2]: 0.03 mg/kg

CCCCCCCc1ccc(CCCC(N)(CO)CCO)cc1 (stereo not drawn) [Working Example 4, 2-Amino-2-[3-(4-heptylphenyl)propyl]butane-1,4-diol]
melting point: 68 to 71 °C

CCCCCCCCCCCCc1ccc(CCC(CCOC(C)=O)(COC(C)=O)NC(C)=O)cc1 (stereo not drawn) [Working Example 16, 3-Acetamido-3-acetoxymethyl-5-(4-dodecylphenyl)pentyl Acetate]
melting point: 75 to 77 °C

CCCCCCCOc1ccc(CCC(CO)(CCC)NC(=O)c2cc([N+](=O)[O-])cc([N+](=O)[O-])c2)cc1 (stereo not drawn) [Working Example 32]
melting point: 90 to 91 °C

CCCCCCCC(=O)c1ccc(CCC(CCOC(C)=O)(CCOC(C)=O)NC(C)=O)cc1 [Working Example 100, 3-Acetamido-5-acetoxy-3-[2-(4-octanoylphenyl)ethyl]pentyl Acetate]
melting point: 83 to 86 °C

CCCCCCCOc1ccc(CCC(CO)(CCO)NC(=O)c2cc([N+](=O)[O-])cc([N+](=O)[O-])c2)cc1 (stereo not drawn) [Working Example 115]
melting point: 78 to 79 °C

CCCCCCCOc1ccc(CCC(CO)(CCO)NC(=O)c2cc([N+](=O)[O-])cc([N+](=O)[O-])c2)cc1 (stereo not drawn) [Working Example 116]
melting point: 77 to 79 °C
